According to paper PMC5675618, “Identification and validation of FGFR2 peptide for detection of early Barrett's neoplasia” (Oncotarget, 2017):
No end group written: not given here. Cy5.5 = near-infrared fluorophore Cy5.5

Columns and labels:
Barrett's neoplasia = settings: topical to mucosal surface, clinic, ref [19], [20], cited from earlier work
Procedure: An empiric peptide labeled with FITC was administered topically to the mucosal surface. Early neoplasia was detected with 94% specificity and 96% positive predictive value. Included in the analysis were 28 flat lesions (Paris 0-IIb) that were poorly visualized with white light. […] Peptides have high diversity, and can achieve high specificity with binding affinities on the ...

[1] = test system: FGFR2c, AKT, ERK phosphorylation in QhTERT cells; assay: Western blot, effect of peptide binding on cell signaling, QhTERT cells expressing FGFR2c; type: cell-based, human; settings: 20 min
Procedure: (§1) QhTERT cells that overexpress either FGFR2b or FGFR2c were seeded in 12-well flat-bottom plates with 500 μL of serum-free medium for 16 hours. FGF1 (#2232-FA-025, R&D systems) was reconstituted to a concentration of 100 μg/mL using PBS, diluted with 0.1% bovine serum albumin, and added to the cells at final concentrations of 100 ng/mL for 20 min in separate wells. Heparin (# H3149-10KU, Sigma) with final concentration of 100 units/mL was also added to increase stability. In addition, peptides at concentrations of 5 and 100 μM were incubated for 20 min in separate wells. The cells were washed with PBS and lysed in RIPA buffer containing protease inhibitors (#11836170001, Roche, Basel, Switzerland). Lysates were separated by gel electrophoresis, transferred to polyvinylidene difluoride membranes (#ISEQ00010, Millipore), and detected by immunoblotting using an enhanced chemiluminescence system (#RPN2106, GE Healthcare). Anti-FGFR2 antibody (#SC122, Santa Cruz Biotechnology), anti-phospho-FGFR (#3471, Cell Signaling Technology), anti-AKT (#4691P, Cell Signaling Technology), anti-ERK1/2 (#4695P, Cell Signaling Technology), anti-phospho-AKT (pS473; #4060P, Cell Signaling Technology), anti-phospho-ERK1/2 (#4370P, Cell Signaling Technology), and anti-tubulin (#32–2600, Invitrogen) were used as per manufacturer's instructions.

[2] = test system: FGFR2b, AKT, ERK phosphorylation in QhTERT cells; assay: Western blot, effect of peptide binding on cell signaling, QhTERT cells expressing FGFR2b; type: cell-based, human; settings: 20 min
Procedure: as §1

[3] = test system: QhTERT cells that express FGFR2c; assay: Competition for binding of SRR^*-Cy5.5 with unlabeled peptide, confocal microscopy; type: cell-based, human; settings: 30 min at 4°C, then 5 μM SRR^*-Cy5.5, 30 min at 4°C
Procedure: Specific peptide binding to QhTERT/FGFR2c was validated on competitive inhibition with addition of unlabeled peptide. ~10^3 cells were grown to ~70% confluence on cover glass in triplicate. Unlabeled peptides at concentrations of 0, 50, 100, 150, 250, and 500 μM were incubated with the cells for 30 min at 4°C. The cells were washed and incubated with 5 μM of the target peptide for another 30 min at 4°C. The cells were washed and fixed with 4% PFA for 5 min. The cells were washed with PBS and mounted with ProLong Gold reagent containing DAPI (Invitrogen).

[4] = test system: QhTERT cells that express FGFR2c; assay: Confocal fluorescence microscopy, binding to QhTERT cells that express FGFR2c; type: cell-based, human; settings: 1 μM peptide, 10 min at RT; confocal, 63X
Source text: (§2) All human esophageal specimens were obtained with written, informed patient consent per approval and guidelines of the University of Michigan Institutional Review Board (IRB). Human non-dysplastic Barrett's esophagus (BE) cells immortalized with hTert (QhTERT) were obtained from the American Type Culture Collection (ATCC) and cultured in keratinocyte-serum free medium containing bovine pituitary extract and human recombinant EGF (ThermoFisher #17005042). QhTERT cells with stable expression of FGFR2b or FGFR2c were provided (DGB). We cultured these cells with keratinocyte-serum free medium containing bovine pituitary extract and human recombinant EGF (ThermoFisher #17005042) and added 1 μg/mL of puromycin-dihydrochloride (Invitrogen #A11138-03). All cells were cultured at 37°C in 5% CO2, and were passaged using 0.25% EDTA containing trypsin (Mediatech Inc). A hemocytometer was used to determine cell number. Peptide synthesis reagents were obtained from either Anaspec or AAPPTEC with the highest grade available (>99% purity) and used without further purification. Solvents and other chemical reagents were obtained from Sigma-Aldrich, unless otherwise stated.
(§3) ~10^3 QhTERT/wt, QhTERT/FGFR2b, and QhTERT/FGFR2c cells were grown on cover glass to ~80% confluence. The cells were washed with PBS 1X and incubated with 1 μM of either peptide for 10 min at RT. The cells were then washed 3X in PBS, fixed with 4% paraformaldehyde (PFA) for 5 min, washed 1X with PBS, and then mounted on glass slides with ProLong Gold reagent containing DAPI (Invitrogen). Confocal fluorescence images were collected with Cy5.5 and DAPI filters (Leica Inverted SP5X 2-Photon FLIM confocal microscopes) using a 63X oil-immersion objective. Fluorescence intensities from 3 cells in each of 3 independent images were quantified using custom Matlab (Mathworks) software.

[5] = test system: QhTERT cells that express FGFR2b; assay: Confocal fluorescence microscopy, binding to QhTERT cells that express FGFR2b; type: cell-based, human; settings: 1 μM peptide, 10 min at RT; confocal, 63X
Source text: as §2, §3

QhTERT wild-type cells = assay: Confocal fluorescence microscopy, binding to wild-type QhTERT cells; type: cell-based, human; settings: 1 μM peptide, 10 min at RT, 63X
Source text: as §2, with “Peptide synthesis reagents were obtained from either Anaspec or AAPPTEC with the highest grade available (>99% purity) and used without further purification. Solvents and other chemical reagents were obtained from Sigma-Aldrich, unless otherwise stated.” left out
~10^3 QhTERT/wt, QhTERT/FGFR2b, and QhTERT/FGFR2c cells were grown on cover glass to ~80% confluence. […] Confocal fluorescence images were collected with Cy5.5 and DAPI filters (Leica Inverted SP5X 2-Photon FLIM confocal microscopes) using a 63X oil-immersion objective. Fluorescence intensities from 3 cells in each of 3 independent images were quantified using custom Matlab (Mathworks) software.

[6] = Fluorescence spectra of Cy5.5-labeled peptides; type: physicochemical; settings: 10 μM in PBS, excitation λex = 671 nm
Source text: We synthesized the 12 amino acid sequence SRRPASFRTARE (black) and attached the fluorophore Cy5.5 (red) via a GGGSK linker (blue) on the C-terminus, hereafter SRR^*-Cy5.5, Figure 1A. Cy5.5 was chosen for photostability and high quantum yield in the near-infrared (NIR) spectrum. We used a linker to prevent steric hindrance of the peptide by the dye. We then used a structural model (1EV2), [24] […] This domain is the same in either isoform FGFR2IIIb or FGFR2IIIc. We also used this model to develop a scrambled sequence SPSRERTFRARA for a control, Figure 1C. This peptide was also labeled with Cy5.5 via a GGGSK linker, hereafter SPS^*-Cy5.5. For SPS^*-Cy5.5, we calculated Et = −277.37. […] We purified SRR^*-Cy5.5 and […] to >97% on HPLC, and measured an experimental mass-to-charge (m/z) ratio on mass spectrometry of 2385.31 for both peptides that agreed with the expected value, Supplementary Figure 3.
Figure 1 Peptide specific for FGFR2 Chemical structure is shown for 12 amino acid (aa) peptide sequence (A) SRRPASFRTARE (SRR^*) found to be specific for FGFR2, and (B) scrambled peptide SPSRERTFRARA (SPS^*) used for control. A Cy5.5 fluorophore (red) is attached via a GGGSK linker (blue) to prevent steric hindrance.

FGFR2c on QhTERT cells = target: T1, FGFR2c on QhTERT cells (UniProt P21802-1 22-821); assay: flow cytometry on cells; apparent dissociation constant; Cy5.5-labeled peptide 0 to 200 nM in 25 nM increments in PBS, ~10^5 QhTERT/FGFR2c cells, 4°C for 1 hour, mean fluorescence intensity; settings: one partner purified
T1 construct: fibroblast growth factor receptor 2, isoform IIIc (C-terminus of D3 encoded by exon 9), stably expressed in human QhTERT cells; also called FGFR2IIIc; isoform IIIc of FGFR2
T1 sequence (P21802 22-821): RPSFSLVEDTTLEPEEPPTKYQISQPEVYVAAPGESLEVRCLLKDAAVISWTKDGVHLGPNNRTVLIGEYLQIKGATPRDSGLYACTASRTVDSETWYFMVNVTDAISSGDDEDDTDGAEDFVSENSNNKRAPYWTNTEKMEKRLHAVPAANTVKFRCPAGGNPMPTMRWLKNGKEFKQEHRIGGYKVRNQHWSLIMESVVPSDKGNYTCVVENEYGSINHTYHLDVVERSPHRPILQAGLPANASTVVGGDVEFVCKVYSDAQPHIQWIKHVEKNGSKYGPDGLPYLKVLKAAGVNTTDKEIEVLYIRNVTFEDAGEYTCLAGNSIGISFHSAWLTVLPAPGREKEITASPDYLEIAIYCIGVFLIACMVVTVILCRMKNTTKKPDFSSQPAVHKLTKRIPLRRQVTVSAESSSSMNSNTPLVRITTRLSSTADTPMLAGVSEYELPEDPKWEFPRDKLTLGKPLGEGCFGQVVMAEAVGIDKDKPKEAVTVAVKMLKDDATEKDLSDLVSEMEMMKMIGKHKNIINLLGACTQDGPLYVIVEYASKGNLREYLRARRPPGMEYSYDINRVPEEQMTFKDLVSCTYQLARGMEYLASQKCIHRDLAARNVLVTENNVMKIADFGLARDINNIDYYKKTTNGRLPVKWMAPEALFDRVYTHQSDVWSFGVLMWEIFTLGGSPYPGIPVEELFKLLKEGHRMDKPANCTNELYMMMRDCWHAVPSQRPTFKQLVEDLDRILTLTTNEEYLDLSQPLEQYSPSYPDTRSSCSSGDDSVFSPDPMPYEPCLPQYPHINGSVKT

[7] = FGF1 100 ng/mL, heparin 100 units/mL

In the case of “ASYNYDA [empiric peptide labeled with FITC, 7 amino acid peptide ASYNYDA that was labeled with FITC]”, the “positive predictive value, early neoplasia detection” value (Barrett's neoplasia; included 28 flat lesions) is given as 96%, the “specificity, early neoplasia detection” value (Barrett's neoplasia; included 28 flat lesions) is given as 94% and the time of binding (Barrett's neoplasia) is given as no more than 5 min.

With “FGF1: FGF1 (#2232-FA-025, R&D systems), positive control [reference compound]” the “phosphorylation of FGFR2 (p-FGFR), AKT (p-AKT) and ERK (p-ERK), positive control” value [1, 7] was “strong phosphorylation activity” and the “phosphorylation of FGFR2 (p-FGFR), AKT (p-AKT) and ERK (p-ERK), positive control” value [2, 7] was “to some extent”.

For “SPSRERTFRARA [SPS^*, unlabeled scrambled peptide … used for control]”, the “mean fluorescence intensity of SRR^*-Cy5.5 with unlabeled control peptide” value ([3]; unlabeled SPS^* at any concentration (0, 50, 100, 150, 250, 500 μM)) was “No significant difference”.

In the case of SPSRERTFRARA [SPS^*-Cy5.5], the “cell surface fluorescence signal / binding” value [4] is reported as “Minimal binding”, the “cell surface fluorescence signal / binding” value [5] is reported as “Minimal binding” and the “cell surface fluorescence signal / binding” value (QhTERT wild-type cells) is reported as “Minimal binding”. The “peak emission λem” value [6] was 710 nm.

For “SRRPASFRTARE [SRR^*, unlabeled 12 amino acid peptide … specific for FGFR2]”, the “phosphorylation of FGFR2 (p-FGFR), AKT (p-AKT) and ERK (p-ERK)” value ([1]; peptide at 5 or 100 μM) was “no change in phosphorylation”, the “phosphorylation of FGFR2 (p-FGFR), AKT (p-AKT) and ERK (p-ERK)” value ([2]; peptide at 5 or 100 μM) was “no change in phosphorylation” and the “mean fluorescence intensity of SRR^*-Cy5.5 with unlabeled target peptide” value ([3]; unlabeled SRR^* at 50 μM and greater vs 0 μM) was “significant reduction”.

B1: SRR*-Cy5.5 (peptide)
peptide: SRRPASFRTAREGGGSK(Cy5.5)-NH2
notes: 12-residue peptide selected by phage display (Ph.D.-12 library) against FGFR2-ECD; linker on the C-terminus that carries the Cy5.5; Assembled on rink amide MBHA resin, so the C-terminus is probably an amide; also called FGFR2 peptide; source: synthetic peptide (Fmoc solid-phase synthesis, prep-HPLC, >97%)
B1 gave a Kd (FGFR2c on QhTERT cells) of 68 nM.
